Calls of active or inactive are those of the source.
Tests used:
[1] = cytotoxicity in HEK-293T cells, dose response, cytotoxicity control for TCR NF-kB inhibitor project, luminescence, T-cell screen hits (AID 489026); type: functional, cell-based;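 also: cells exposed to compound about 14 hours before the viability readout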
[2] = target: T1, Short transient receptor potential channel 4 (Mus musculus, UniProt Q9QUQ5); test: mouse TRPC4 channel activators, dose response, cell-based, HEK293 TRPC4/mu-opioid, Fluo-4 calcium (AID 434937); type: functional
T1 sequence (Q9QUQ5 whole entry): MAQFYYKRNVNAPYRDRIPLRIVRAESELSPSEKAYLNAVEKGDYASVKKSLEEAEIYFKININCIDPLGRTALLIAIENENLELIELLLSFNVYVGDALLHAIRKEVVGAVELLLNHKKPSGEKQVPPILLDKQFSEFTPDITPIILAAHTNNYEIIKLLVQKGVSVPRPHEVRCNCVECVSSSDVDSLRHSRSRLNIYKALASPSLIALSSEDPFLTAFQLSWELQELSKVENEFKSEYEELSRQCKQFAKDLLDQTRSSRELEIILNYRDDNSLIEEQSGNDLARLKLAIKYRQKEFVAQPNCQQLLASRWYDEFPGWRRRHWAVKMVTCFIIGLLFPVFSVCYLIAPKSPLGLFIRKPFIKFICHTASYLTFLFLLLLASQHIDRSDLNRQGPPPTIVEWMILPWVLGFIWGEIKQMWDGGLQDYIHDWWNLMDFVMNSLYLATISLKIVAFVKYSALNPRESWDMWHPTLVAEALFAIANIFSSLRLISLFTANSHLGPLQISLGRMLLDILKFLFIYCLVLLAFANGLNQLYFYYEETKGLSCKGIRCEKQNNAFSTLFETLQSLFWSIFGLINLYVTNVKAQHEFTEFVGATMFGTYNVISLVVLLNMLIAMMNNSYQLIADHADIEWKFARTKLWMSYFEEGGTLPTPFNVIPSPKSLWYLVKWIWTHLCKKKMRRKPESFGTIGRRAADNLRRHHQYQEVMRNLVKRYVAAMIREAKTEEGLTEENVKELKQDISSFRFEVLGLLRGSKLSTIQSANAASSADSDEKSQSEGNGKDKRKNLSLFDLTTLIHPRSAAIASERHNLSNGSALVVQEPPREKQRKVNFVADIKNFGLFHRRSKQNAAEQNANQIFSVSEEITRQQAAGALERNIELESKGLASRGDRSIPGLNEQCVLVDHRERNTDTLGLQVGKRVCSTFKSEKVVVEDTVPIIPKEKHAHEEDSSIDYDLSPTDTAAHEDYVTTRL

[3] = cytotoxicity in HEK-293T cells, dose response, cytotoxicity control for BCR NF-kB inhibitor project, luminescence, B-cell screen hits (AID 489021); type: functional, cell-based;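 also: HEK-293T cells carrying an NF-kB luciferase reporter; cells exposed to compound for about 14 hours before viability readout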
[4] = target: T2, Estrogen receptor (Homo sapiens, UniProt P03372);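 also: potency for inhibiting coactivator peptide recruitment to the receptor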
T2 sequence (P03372 whole entry): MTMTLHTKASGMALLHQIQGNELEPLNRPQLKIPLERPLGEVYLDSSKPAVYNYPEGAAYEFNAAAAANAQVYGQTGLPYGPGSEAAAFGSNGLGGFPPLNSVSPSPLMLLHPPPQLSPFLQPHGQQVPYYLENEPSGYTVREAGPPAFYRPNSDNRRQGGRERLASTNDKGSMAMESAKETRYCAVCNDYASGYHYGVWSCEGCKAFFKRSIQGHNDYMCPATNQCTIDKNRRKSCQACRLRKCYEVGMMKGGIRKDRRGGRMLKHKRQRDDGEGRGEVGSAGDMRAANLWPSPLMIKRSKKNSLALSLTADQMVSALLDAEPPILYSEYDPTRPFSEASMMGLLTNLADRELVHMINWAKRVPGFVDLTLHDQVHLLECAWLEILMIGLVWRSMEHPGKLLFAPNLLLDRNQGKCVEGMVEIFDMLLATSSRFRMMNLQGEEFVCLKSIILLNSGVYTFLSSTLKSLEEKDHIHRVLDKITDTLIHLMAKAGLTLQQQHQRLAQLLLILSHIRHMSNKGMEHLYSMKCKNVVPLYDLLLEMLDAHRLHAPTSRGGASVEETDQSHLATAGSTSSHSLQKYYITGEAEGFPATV

[5] = cytotoxicity in HPDE-C7 cells, cell-based, fluorescence, HTS (AID 430); type: functional; conditions: Homo sapiens
[6] = cytotoxicity in KRAS-transformed pancreatic duct cells, primary screen, cell-based, fluorescence, HTS (AID 431); type: functional; conditions: Homo sapiens;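 also: cell line used: HPDE-C7K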
[7] = A cytotoxicity screen of small molecule inhibitors of the PhoP region in Salmonella typhi identified in the primary screen. [Related pubchem assays: 1850, 1864, 1985 ]; type: functional
[8] = target: Voltage-dependent T-type calcium channel subunit alpha-1H (Homo sapiens, UniProt O95180); type: functional;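 also: channel activity triggered by adding a high calcium stimulation buffer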
[9] = target: Eukaryotic translation initiation factor 4E (Mus musculus, UniProt P63073); test: eIF4E–eIF4G protein interaction inhibitors, dose response, biochemical, TR-FRET (AID 855); type: functional;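 also: potency for disrupting eIF4E binding to eIF4GI seen as loss of FRET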
Eukaryotic translation initiation factor 4E, sequence (P63073 whole entry): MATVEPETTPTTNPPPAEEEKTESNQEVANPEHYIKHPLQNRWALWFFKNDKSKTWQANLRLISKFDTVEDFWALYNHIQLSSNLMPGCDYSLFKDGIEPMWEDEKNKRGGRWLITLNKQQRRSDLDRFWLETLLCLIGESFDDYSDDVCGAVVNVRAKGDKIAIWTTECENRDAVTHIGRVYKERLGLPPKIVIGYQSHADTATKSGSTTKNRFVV

Voltage-dependent T-type calcium channel subunit alpha-1H, sequence (O95180 whole entry): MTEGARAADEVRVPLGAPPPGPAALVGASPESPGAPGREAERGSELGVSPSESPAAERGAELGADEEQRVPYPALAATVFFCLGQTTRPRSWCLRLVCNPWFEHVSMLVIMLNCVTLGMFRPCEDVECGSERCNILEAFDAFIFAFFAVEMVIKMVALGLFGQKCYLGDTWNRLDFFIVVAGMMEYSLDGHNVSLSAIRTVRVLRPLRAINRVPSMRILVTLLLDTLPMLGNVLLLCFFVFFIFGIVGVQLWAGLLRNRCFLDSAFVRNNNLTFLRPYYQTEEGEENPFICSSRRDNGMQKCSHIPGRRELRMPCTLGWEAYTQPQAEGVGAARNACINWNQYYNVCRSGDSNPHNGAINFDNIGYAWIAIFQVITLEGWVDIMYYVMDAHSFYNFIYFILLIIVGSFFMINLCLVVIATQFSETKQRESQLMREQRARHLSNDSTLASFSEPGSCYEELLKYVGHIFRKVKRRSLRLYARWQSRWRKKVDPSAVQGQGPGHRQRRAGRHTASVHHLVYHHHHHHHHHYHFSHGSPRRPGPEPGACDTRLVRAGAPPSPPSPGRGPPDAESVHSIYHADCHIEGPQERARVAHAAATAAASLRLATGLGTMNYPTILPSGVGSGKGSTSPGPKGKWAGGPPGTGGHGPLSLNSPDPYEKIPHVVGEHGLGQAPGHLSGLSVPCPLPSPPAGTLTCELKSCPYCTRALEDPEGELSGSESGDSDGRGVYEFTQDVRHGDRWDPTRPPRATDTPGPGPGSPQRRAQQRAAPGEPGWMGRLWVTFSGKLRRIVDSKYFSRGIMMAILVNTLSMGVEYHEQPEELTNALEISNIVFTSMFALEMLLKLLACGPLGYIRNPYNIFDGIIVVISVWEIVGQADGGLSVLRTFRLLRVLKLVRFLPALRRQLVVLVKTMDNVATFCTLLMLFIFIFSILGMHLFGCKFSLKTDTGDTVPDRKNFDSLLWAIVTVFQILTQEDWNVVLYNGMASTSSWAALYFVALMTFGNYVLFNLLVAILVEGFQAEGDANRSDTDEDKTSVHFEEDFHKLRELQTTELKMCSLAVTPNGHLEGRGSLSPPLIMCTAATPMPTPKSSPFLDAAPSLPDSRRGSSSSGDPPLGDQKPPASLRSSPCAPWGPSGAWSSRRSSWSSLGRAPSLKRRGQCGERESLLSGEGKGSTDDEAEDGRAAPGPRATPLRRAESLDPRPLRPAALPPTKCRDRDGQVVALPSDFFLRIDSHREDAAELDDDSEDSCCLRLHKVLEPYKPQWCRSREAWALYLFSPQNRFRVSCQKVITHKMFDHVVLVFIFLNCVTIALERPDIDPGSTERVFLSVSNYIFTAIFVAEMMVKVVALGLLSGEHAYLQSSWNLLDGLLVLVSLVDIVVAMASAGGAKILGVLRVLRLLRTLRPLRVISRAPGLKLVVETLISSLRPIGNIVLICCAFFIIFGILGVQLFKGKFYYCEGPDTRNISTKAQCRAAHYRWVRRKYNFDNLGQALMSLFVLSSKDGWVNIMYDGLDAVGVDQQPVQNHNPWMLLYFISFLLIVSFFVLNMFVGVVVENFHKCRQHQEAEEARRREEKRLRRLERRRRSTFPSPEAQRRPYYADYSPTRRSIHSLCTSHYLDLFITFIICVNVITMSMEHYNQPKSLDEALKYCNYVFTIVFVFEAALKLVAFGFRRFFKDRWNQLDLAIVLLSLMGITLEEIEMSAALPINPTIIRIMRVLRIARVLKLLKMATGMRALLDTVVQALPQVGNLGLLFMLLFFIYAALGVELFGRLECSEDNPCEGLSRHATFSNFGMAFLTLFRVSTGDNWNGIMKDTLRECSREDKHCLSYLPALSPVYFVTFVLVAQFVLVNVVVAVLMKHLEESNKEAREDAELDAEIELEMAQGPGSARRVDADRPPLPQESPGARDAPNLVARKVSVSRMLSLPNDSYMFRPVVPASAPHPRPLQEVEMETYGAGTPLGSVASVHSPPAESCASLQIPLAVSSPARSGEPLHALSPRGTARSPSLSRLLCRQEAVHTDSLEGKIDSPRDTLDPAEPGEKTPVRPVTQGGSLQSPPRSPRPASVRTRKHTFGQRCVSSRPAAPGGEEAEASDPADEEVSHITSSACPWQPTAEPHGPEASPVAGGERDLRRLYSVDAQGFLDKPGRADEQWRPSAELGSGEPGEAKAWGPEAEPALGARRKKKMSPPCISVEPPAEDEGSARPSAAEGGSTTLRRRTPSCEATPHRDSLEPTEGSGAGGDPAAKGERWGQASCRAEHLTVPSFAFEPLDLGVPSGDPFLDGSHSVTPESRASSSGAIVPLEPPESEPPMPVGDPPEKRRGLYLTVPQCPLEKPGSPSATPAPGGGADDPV

Q: Which IC50 [1] does the source give for CCOC(=O)c1[nH]c(C)c(C(=O)Nc2cc(OC)ccc2OC)c1C here?
A: > 80 µM (inactive)

Q: With Cc1ccn(CC(=O)NC2CCCN(Cc3ccc(CC(C)C)cc3)C2)n1 (stereo unspecified) as the molecule, how does the EC50 [2] read?
A: 1.68 µM (active)

Q: For Cc1cc(-c2ccc(S(=O)(=O)N(C)c3ccc(C)c(C)c3)s2)on1, which IC50 [1] is on record?
A: > 80 µM (inactive)

Q: Which IC50 [3] does the source give for Cn1c(=O)cc(Nc2ccccc2)c2c(=O)n(-c3ccccc3)c(=O)n(-c3ccccc3)c21 here?
A: > 80 µM (inactive)

Q: For COc1cc(C)c(S(=O)(=O)NCc2ccc3c(c2)OCO3)cc1C, which IC50 [4] is on record?
A: > 50 µM (not active)

Q: Which results are given for Cc1cc(NCc2ccccc2)nc(-c2ccccc2O)n1?
A: EC50 [5]: 19.2 µM (active); EC50 [6]: 10.3 µM (active)

Q: For c1cnc2nc(-c3ccc4c(c3)OCO4)cn2c1, which EC50 [7] is on record?
A: > 50 µM (active)

Q: With C=CCn1c(SC(C)C(=O)NCCC2=CCCCC2)nc2ccccc2c1=O (stereo unspecified) as the molecule, how does the EC50 [8] read?
A: 3.01 µM (active)

Q: With Cc1cc(CSc2ccccc2)ccc1NC(=O)c1cccc([N+](=O)[O-])c1 as the molecule, how does the IC50 [9] read?
A: > 64 µM (inactive)

Q: With CSc1nccc(-c2nn(-c3ccc(C)cc3)ccc2=O)n1 as the molecule, how does the IC50 [1] read?
A: > 80 µM (inactive)

Q: For CC(C)(C)n1nnnc1C(c1cccs1)N1CCCc2ccccc21 (stereo unspecified), which EC50 [8] is on record?
A: 8.88 µM (active)

Q: With O=C(OCn1nnc2ccccc2c1=O)c1cn(-c2ccccc2)nc1-c1cccnc1 as the molecule, how does the IC50 [4] read?
A: > 50 µM (not active)

Q: Which EC50 [7] does the source give for CCN1CCN(c2nc3ccccc3nc2C(C#N)S(=O)(=O)c2ccc(C)cc2)CC1 (stereo unspecified) here?
A: > 50 µM (active)

Q: Which EC50 [8] does the source give for O=C(COc1ccc(Cl)cc1Cl)Nc1nc2n(n1)C(c1ccccc1)CC(=O)N2 (stereo unspecified) here?
A: 1.98 µM (active)

Q: For CC(C)(C)c1ccc(-c2nnc(SCC(=O)NC3CC3)o2)cc1, which IC50 [3] is on record?
A: > 80 µM (inactive)
